This note sets out measurements from ChEMBL document CHEMBL5346941, “Design, synthesis and evaluation of novel monoamine oxidase B (MAO-B) inhibitors with improved pharmacokinetic properties for Parkinson's disease” (Eur J Med Chem, 2023).

Active and inactive are the calls of the source. The calls are words filed in the database; no cut-off is given here.

As usually defined, the inhibition is the drop in the measured response relative to a control, in per cent. A word on the Papp B→A: it is how fast a substance crosses the layer from the basolateral side. The IC50 is the point on the concentration scale where inhibition reaches its midpoint. Broadly, the Cmax is the maximum level reached in the sampled fluid or tissue. What is called AUC(0-t) is the area under the concentration-time curve up to a stated or last time point. Higher therefore signals high exposure.

The target in one series is CYP2C9 (Homo sapiens, UniProt P11712). As to the kind of experiment: Inhibition of CYP2C9 in human liver microsomes using diclofenac as substrate at 10 uM incubated for 10 mins in presence of NADPH by LC-MS/MS analysis relative to control. The note with it: probe diclofenac. Type of series: ADME, Microsome. A general note: Liver microsomes are vesicles of endoplasmic reticulum, rich in cytochrome P450 enzymes.
Chain of CYP2C9 (P11712 whole entry): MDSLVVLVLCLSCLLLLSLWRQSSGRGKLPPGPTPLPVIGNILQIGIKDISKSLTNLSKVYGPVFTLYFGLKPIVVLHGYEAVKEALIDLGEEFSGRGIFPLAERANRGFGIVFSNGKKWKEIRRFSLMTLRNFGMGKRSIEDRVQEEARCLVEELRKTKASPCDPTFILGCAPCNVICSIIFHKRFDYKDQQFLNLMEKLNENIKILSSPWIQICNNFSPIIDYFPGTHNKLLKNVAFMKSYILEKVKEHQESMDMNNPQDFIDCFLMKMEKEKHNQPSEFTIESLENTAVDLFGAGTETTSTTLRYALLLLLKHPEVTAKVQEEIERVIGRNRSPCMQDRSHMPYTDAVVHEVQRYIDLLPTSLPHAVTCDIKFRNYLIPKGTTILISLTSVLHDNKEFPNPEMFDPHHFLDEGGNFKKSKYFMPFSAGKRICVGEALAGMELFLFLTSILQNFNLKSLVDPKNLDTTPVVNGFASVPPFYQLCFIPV

A short description of series [1]: Apparent permeability across basolateral to apical side in MDCKII-MDR1 cells at 10 uM incubated for 30 mins by LC-MS/MS analysis. To be noted: dog, MDCK-MDR1. It counts as ADME, cell-based, Canis lupus familiaris.
The next series addresses T1, CYP1A2 (Homo sapiens, UniProt P05177).
T1 sequence (P05177 whole entry): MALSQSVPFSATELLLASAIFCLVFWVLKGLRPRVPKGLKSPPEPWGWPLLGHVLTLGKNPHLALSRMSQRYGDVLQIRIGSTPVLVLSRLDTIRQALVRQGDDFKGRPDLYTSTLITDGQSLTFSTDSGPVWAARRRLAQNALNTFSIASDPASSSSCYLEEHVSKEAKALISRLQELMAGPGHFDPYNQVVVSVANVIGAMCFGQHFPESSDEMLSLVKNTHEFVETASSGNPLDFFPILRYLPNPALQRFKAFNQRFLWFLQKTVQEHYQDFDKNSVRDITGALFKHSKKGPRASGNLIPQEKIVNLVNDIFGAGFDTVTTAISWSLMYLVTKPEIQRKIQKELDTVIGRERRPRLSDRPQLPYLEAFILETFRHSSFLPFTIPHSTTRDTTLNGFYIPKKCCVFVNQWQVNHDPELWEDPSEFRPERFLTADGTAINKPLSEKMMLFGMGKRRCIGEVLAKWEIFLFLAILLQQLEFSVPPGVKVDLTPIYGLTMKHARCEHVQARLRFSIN
In words: Inhibition of CYP1A2 in human liver microsomes using ethoxyresorufin as substrate at 10 uM incubated for 10 mins in presence of NADPH by LC-MS/MS analysis relative to control. Type of series: ADME, Microsome. The note with it: probe ethoxyresorufin.

Series [2] is described as follows: Metabolic stability in rat liver microsomes assessed as half life at 1 uM incubated for 60 mins in presence of NADPH by LC-MS/MS analysis. Type of series: ADME, Microsome.
Series [3] can be described thus: Volume of distribution at steady state in fasted ICR mouse at 2 mg/kg, iv measured for 24 hrs. Type of series: ADME, organism-based. To be noted: in vivo, read-out: Vdss.
The subject of series [4] is Mus musculus. As to the kind of experiment: Anti-parkinson activity in MPTP-induced dopamine deficit C57BL/6 mouse model assessed as increase in dopamine concentration in striatum at 3 to 10 mg/kg, ip pretreated with MPTP for 4 hrs followed by compound administration for 5 times once every 4 hrs further incubated with benserazide at 12.5 mg/kg for 30 mins prior to last dose and measured after 30 mins by HPLC analysis. To be noted: dose 3-10 mg/kg, time 16.5 hrs. Type of series: functional, organism-based.

Series [5] in a line: Protein binding in rat plasma at 1 uM incubated for 5 hrs by LC-MS/MS based rapid equilibrium dialysis method. The note with it: read-out: PPB (converted). Type of series: ADME, cell-free. For orientation: In equilibrium dialysis only unbound substance equilibrates across the membrane.
The target of series [6] is Voltage-gated inwardly rectifying potassium channel KCNH2 (Homo sapiens, UniProt Q12809). In words: Inhibition of hERG transfected in CHO-K1 cells at -80 mV holding potential incubated for 2 mins by patch clamp assay. Type of series: toxicity, cell-based. In general terms: hERG is a cardiac potassium channel; its block is linked to QT prolongation.
Chain of Voltage-gated inwardly rectifying potassium channel KCNH2 (Q12809 whole entry): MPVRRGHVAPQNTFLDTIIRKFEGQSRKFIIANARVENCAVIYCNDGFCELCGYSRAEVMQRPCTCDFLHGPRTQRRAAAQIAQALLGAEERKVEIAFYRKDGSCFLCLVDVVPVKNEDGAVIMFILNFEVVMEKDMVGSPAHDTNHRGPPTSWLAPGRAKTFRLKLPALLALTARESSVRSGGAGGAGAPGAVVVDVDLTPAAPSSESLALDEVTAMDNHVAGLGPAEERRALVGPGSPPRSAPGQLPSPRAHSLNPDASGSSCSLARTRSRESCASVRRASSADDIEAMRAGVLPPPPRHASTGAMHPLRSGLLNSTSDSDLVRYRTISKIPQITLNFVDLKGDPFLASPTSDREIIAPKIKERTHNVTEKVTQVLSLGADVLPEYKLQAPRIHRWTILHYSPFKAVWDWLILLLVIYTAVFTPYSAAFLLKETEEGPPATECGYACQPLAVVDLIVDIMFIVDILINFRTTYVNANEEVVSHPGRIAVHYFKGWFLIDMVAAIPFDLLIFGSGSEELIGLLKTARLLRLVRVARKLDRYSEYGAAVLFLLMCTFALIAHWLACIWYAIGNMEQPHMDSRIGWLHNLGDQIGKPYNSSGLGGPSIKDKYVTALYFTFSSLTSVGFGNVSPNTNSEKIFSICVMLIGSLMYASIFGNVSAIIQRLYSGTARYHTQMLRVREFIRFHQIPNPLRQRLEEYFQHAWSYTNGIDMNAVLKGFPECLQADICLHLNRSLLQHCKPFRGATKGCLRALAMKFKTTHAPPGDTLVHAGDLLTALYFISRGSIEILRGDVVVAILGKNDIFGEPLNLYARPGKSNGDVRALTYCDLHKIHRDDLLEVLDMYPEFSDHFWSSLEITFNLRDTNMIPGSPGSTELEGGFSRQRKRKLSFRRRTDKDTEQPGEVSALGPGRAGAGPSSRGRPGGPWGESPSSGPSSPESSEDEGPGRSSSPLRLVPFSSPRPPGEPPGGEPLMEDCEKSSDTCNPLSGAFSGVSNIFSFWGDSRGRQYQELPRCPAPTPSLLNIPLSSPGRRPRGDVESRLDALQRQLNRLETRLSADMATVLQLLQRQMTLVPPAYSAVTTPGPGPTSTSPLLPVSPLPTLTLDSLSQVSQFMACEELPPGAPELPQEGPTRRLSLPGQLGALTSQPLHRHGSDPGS
A short description of series [7]: Cmax in fasted ICR mouse at 2 mg/kg, iv measured for 24 hrs. The note with it: in vivo. Set-up: time 24 hrs, dose 2 mg/kg, route iv. Type of series: ADME, organism-based.
Series [8] can be described thus: Drug concentration in Sprague-Dawley rat plasma at 5 mg/kg, ip measured after 120 mins by LC-MS/MS analysis. Type of series: ADME, organism-based.
Series [9] concerns Mus musculus. As to the kind of experiment: In vivo inhibition of MAO-B in ICR mouse assessed as reduction in enzyme activity in brain at 2 mg/kg, ip administered once for 30 to 60 mins by amplex red based assay. It counts as functional, organism-based. The note with it: time 30-60 min.
A short description of series [10]: Elimination half life in fasted Sprague-Dawley rat at 5 mg/kg, IG measured for 24 hrs. It counts as ADME, organism-based. The note with it: in vivo, po, read-out: beta t1/2 (converted).
Series [11] can be described thus: AUC (0 to t) in fasted Sprague-Dawley rat at 1 mg/kg, iv measured for 24 hrs. To be noted: in vivo. Set-up: dose 1 mg/kg, time 24 hrs, route iv. It counts as ADME, organism-based.
The nature of series [12]: Drug concentration in Sprague-Dawley rat brain at 5 mg/kg, ip measured after 60 mins by LC-MS/MS analysis. It counts as ADME, organism-based. The note with it: read-out: Ct.
The next series addresses T2, CYP2B6 (Homo sapiens, UniProt P20813).
T2 sequence (P20813 whole entry): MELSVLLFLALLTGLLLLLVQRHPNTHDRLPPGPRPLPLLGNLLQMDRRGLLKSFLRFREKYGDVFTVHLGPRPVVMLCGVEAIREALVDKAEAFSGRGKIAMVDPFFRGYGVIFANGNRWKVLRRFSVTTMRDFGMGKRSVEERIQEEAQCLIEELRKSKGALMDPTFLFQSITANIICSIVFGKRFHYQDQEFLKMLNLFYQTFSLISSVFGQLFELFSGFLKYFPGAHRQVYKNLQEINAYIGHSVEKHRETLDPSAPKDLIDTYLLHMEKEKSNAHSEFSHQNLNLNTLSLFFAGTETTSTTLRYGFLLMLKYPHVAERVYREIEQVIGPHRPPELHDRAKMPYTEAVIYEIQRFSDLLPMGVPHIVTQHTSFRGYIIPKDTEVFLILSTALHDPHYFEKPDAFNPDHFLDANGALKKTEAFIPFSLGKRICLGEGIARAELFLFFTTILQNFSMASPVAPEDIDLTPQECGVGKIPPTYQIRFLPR
In words: Inhibition of CYP2B6 in human liver microsomes using bupropion as substrate at 10 uM incubated for 10 mins in presence of NADPH by LC-MS/MS analysis relative to control. The note with it: probe bupropion. Type of series: ADME, Microsome.

Series [13] deals with T3, Amine oxidase [flavin-containing] B (Homo sapiens, UniProt P27338).
T3 sequence (P27338 whole entry): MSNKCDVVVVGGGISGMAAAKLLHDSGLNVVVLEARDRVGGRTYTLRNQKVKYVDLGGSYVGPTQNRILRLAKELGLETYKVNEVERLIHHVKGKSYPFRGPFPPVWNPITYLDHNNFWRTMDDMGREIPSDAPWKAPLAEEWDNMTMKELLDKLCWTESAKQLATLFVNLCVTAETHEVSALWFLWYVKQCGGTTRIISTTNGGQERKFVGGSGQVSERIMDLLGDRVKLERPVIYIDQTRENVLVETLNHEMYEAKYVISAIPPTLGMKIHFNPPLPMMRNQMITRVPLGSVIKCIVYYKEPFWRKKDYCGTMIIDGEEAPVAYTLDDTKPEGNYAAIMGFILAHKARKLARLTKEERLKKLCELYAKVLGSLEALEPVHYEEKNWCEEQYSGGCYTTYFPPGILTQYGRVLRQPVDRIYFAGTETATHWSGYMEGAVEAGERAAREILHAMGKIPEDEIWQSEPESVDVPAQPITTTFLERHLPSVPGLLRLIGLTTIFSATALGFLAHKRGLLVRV
As to the kind of experiment: Inhibition of recombinant human MAO-B expressed in Sf9 cells using p-tyramine as substrate preincubated for 15 mins followed by substrate addition and measured after 60 mins by luciferin based luminescence analysis.

Series [14] can be described thus: Metabolic stability in human liver microsomes assessed as intrinsic clearance at 1 uM incubated for 60 mins in presence of NADPH by LC-MS/MS analysis. Type of series: ADME, Microsome. To be noted: read-out: CLH.
A short description of series [15]: Metabolic stability in rat liver microsomes assessed as intrinsic clearance at 1 uM incubated for 60 mins in presence of NADPH by LC-MS/MS analysis. It counts as ADME, Microsome. To be noted: read-out: CLH.

As to `NC(=O)[C@@H]1C[C@H](F)CN1Cc1ccc2oc(-c3ccc(F)cc3)cc2c1`, the inhibition at 10 min, 10 µM worked out at 8.05% on CYP2C9, 32.6% at CYP1A2 and 41.2% on CYP2B6. The Papp B→A at 0.5 h, 10 µM in series [1] worked out at 29.7 nm/s. The half-life at 1 µM in series [2] came to 1.48 h. Further, the Vd in series [3] amounted to 2.72 L/kg. Besides, the outcome in the series with Mus musculus [4] was Active. The fraction unbound at 5 h, 1 µM in [5] is 0.0062. For the same compound, the results for the IC50 in series [6] and in [13] were > 30 µM and 0.037 µM, respectively. Also, in series [7], the peak level (Cmax) was 0.9 µg/mL. This compound returned a concentration at 2 h in series [8] of 0.458 µg/mL. The inhibition result in the series with Mus musculus [9] was “Active”. The half-life in series [10] is 4.22 h. The AUC(0-t) at 24 h in [11] was determined as 0.305 µg·h/mL. In series [12], the concentration at 1 h is 8750 ng/g. Besides, the CLint scaled at 1 µM turned out to be 0.15 L/h/kg in series [14] and 0.606 L/h/kg in series [15].
